Values of other authors as cited in patent publication US9044383B1, “Compounds and methods for drug delivery via a human nail” (priority 2013, dated 2015).

Columns and labels:
[1] = system: obesity in subjects; settings: applied topically on the skin
[2] = system: overweight and obese men; settings: taken orally

SMILES: C=C[C@@]1(C)CC(=O)[C@]2(O)[C@@]3(C)[C@@H](O)CCC(C)(C)[C@@H]3[C@H](O)[C@H](OC(C)=O)[C@@]2(C)O1 [forskolin, 7-beta-acetoxy-8,13-epoxy-1-alpha, 6-beta, 9-alpha-trihydroxylabd-14-en-1′-one]
- decreasing obesity [1]: favorable results
- solubility in organic solvents (organic solvents such as ethanol, chloroform, and dimethyl surfoxide): soluble
- solubility in water (with 2% ethanol) (water with 2% ethanol, first dissolved in ethanol or dimethyl surfoxide at 5 mg/mL, then diluted with water): up to 0.2 mm
- effectiveness as a weight loss aid [2]: favorable results
